Measurements reported in patent US7851436B2, “Inhibition of migration and induction of cell death by the type II collagen amino propeptides” (Washington University, priority 2007, dated 2010).
Entries after “also recorded” stand apart in the source; their conditions may differ.

Key:
HeLa 229 cells = test: Cell survival assay in HeLa 229 cells; format: cell-based, human
Protocol: Cell Culture. Human Chondrosarcoma cell line (Ch-1) was isolated from a portion of chondrosarcoma tumor. […] HUVEC cells were a gift from Dr. William Frazier (Washington University) and were cultured in M199 Earle's medium with 10 units/ml of penicillin, 5 μg/ml streptomycin and 0.25 μg/ml Fungizone supplemented with 10% FBS, 0.1 mg/ml L-glutamine, 25 mM Hepes, 16 units/ml of heparin (Sigma) and 0.1 mg/ml endothelial cell mitogen (Biochemical Technologies).
Detection of Cell Death. Cells were cultured to confluence in a 24-well plate pre-coated with type I collagen, fibronectin (Sigma), and ECM Matrigel (Becton Dickinson). Proteins in serum-free medium were added to the cells. Cells were monitored by light microscopy and images were digitally photographed using a Q capture Retiga 2000R camera. Quantification of cells remaining in the well was performed by washing with PBS for three times, fixing with 4% paraformaldehyde. The cells per field (×400) were counted for three field per well (3 wells per measurement). The mean number and standard deviation (SD) were calculated.

mouse osteoclast cells = test: Osteoclast viability (trypan blue exclusion); format: cell-based; conditions: 16 hours at 37° C.
Protocol: FIG. 10 depicts a graph showing mouse chondrogenic cells (ATDC5), mouse osteoblast cells, and mouse osteoclast cells treated with recombinant GST, PIIBNP or mPIIBNP proteins for 16 hours at 37° C. The cells were trypsinized and cell viability was assayed using a trypan blue exclusion based cell counting. PPIIBNP induced death in osteoclasts that resorb the bone, but not the osteoblasts that form bone.

αV integrin = biological target: T1, αV integrin (Homo sapiens, UniProt P06756); test: Integrin αV immunoprecipitation; format: binding; conditions: Ch-1 cell lysates
T1 construct: Cell homogenates were then mixed with GST, PIIBNP, or mPIIBNP; endogenous in cells; host or cells: Ch-1 human chondrosarcoma cell lysate
T1 sequence (P06756 31-889 limits assumed): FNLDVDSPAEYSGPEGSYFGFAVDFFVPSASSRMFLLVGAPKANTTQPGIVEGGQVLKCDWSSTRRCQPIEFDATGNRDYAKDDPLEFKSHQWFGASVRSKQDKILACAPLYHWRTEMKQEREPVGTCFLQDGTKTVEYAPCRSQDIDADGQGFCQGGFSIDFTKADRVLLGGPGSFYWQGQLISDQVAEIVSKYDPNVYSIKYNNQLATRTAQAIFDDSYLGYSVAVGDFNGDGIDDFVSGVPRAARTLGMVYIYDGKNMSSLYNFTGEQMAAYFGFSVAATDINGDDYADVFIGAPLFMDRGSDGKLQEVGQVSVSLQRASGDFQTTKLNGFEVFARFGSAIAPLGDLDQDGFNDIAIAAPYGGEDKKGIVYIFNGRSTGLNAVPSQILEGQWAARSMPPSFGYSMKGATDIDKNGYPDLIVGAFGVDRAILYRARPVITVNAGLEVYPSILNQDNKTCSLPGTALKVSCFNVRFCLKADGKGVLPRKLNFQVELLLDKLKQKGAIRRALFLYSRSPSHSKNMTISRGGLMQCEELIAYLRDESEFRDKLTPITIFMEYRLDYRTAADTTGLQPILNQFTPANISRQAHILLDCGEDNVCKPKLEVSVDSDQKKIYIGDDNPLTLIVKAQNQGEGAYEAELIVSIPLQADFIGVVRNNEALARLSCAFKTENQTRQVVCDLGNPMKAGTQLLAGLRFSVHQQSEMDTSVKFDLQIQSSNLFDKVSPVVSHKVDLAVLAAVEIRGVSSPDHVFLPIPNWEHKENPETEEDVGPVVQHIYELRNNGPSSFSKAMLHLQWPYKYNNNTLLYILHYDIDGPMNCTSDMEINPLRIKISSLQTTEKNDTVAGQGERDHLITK
T1 sequence (P06756 891-1048 limits assumed): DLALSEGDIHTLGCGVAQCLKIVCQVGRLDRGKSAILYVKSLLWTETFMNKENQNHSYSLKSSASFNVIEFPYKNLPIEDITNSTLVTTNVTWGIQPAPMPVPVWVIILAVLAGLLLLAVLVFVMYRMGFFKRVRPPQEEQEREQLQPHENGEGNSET
Protocol: Integrin αV Immunoprecipitation. Ch-1 cells were lysed in lysis buffer (50 mM Hepes-KOH [pH 7.4]; 150 mM NaCl; 1% Triton X-100; 10% glycerol; 1 mM EGTA; 1 mM EDTA; 10 mM sodium pyrophosphate; 100 mM sodium fluoride; 0.2 mM sodium orthovanadate; supplemented with the proteinase inhibitors cocktail (Sigma) overnight at 4° C. Cell homogenates were then mixed with GST, PIIBNP, or mPIIBNP and incubated for 1 hours at room temperature. Protein A agarose (Sigma) previously bound with integrin αV antibody was incubated with cell homogenate mixture for 4 h at 4° C. with gentle shaking. After washing (5 mins.×3), the precipitated material was analyzed by SDS-PAGE and detected with chicken anti PIIBNP antibody.

Ch-1 cells = test: Internalization of propeptides (immunostaining); format: cell-based, human
From the text: Ch-1 cells exposed to GST-PIIBNP and GST-PIIANP were immunostained with immunospecific antibodies. […] The internalization of PIIBNP may be exploited to target exogenous agents to cells expressing αVβ3 and αVβ5 integrins.

[1] = system: FGF induced mouse cornea neovascularization; test: In vivo mouse cornea angiogenesis inhibition assay; conditions: Balb/c mice, osmotic pumps, one week
Protocol: FGF containing PolyHEMA pellets were implanted into the corneas of 6 week old Balb/c mice. The mice received osmotic pumps containing a number of proteins to measure the ability of each protein to inhibit angiogenesis. After one week the mice were sacrificed and angiogenesis was quantified based on the total vessel length seen from fluorescently labeled vessels.
To prepare a FGF Pellet (67 ng/quarter pellet) PBS (1 μl of 1×PBS pH 7.4), sucralfate (Sigma, #S0652)(1 μL of a 100 mg/mL suspension of sucralfate), Human FGF-2 (Peprotech, 100-1 8B)(1 μL of 3.2 mg/mL FGF-2), and poly-hema (poly(2-hydroxyethyl methacrylate), Sigma, P3932)(3 μL of 250 mg/mL poly-hema) were combined. Pellets (0.5 μL) were prepped on parafilm, air dried for 10-20 mins, and divided into quarters. The resulting pellets were sealed with parafilm and stored at −20° C. until needed.
To implant the pellet, a mouse was injected with Ketamine/Xylazine (about 0.1 mg KX/gram mouse, IP injection). […]
After one week the mice are injected with same amount of Ketamine given during the implantation procedure. […] Any remaining tissues will show up when the cornea is mounted and viewed with fluorescence. […] Angiogenesis is measured by total vessel outgrowth based on the fluorescently stained blood vessels using Metamorph software (FIG. 9).

HUVEC cells = test: Tube formation assay; format: cell-based, human
Protocol: Tube Formation Assay. The tube formation assay using HUVEC cells was performed as described with some modification. Briefly, a suspension of 7.5×10^4 cells/well in complete medium was seeded into a Matrigel-coated 24-well plate in the presence of recombinant PIIBNP or GST (0-10 μM). The formation of tubes was evaluated using light microscopy and quantification was performed using a Q Capture Pro imaging software. Branch points per field were counted from three fields for each treatment.

## PIIBNP: Recombinant human Type IIB procollagen NH2-propeptide (exons 3-8, lacking exon 2), expressed as GST fusion protein
HeLa 229 cells; HeLa 229 cells, FIG. 4M
  cell death: > 80%
HeLa 229 cells; HeLa cells
  survival: 20%
Mouse osteoclast cells; listed as PPIIBNP
  induction of osteoclast death: induced death
Mouse osteoclast cells; listed as Type IIB propeptide
  induction of osteoclast death: induced the death
αV integrin
  immunoprecipitation with αV integrin specific antibody: immunoprecipitated
Ch-1 cells
  internalization into cells: is internalized
Ch-1 cells; 30 minutes of exposure
  colocalization with actin filaments: colocalized with actin filaments
Ch-1 cells; 2 hours of exposure
  localization to the nucleus: localized to the nucleus; also recorded: colocalized with the nucleus
[1]; FGF pellets
  inhibition of angiogenesis (cornea neovascularization): inhibits angiogenesis in vivo; also recorded: suppression of neovascularization
[1]
  toxicity: no apparent toxicity
HUVEC cells; 0.1 μM
  tube formation inhibited: 50%
HUVEC cells; Matrigel-coated plates, 0-10 μM
  inhibition of tube formation: able to inhibit the formation of tubes in a dose-dependent manner
